Results from PubChem BioAssay (NCI).
Several values for one entry are separate records, joined by “and”; a condition that tells them apart may be missing. Equal values may be shown once.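 In this assay, cells in 96-well plates receive the compound at five concentrations for 48 hours. Endpoints are linearly interpolated between the surrounding concentrations. Here, GI50 denotes the concentration required for 50% inhibition of growth. The concentration for full growth arrest is given as TGI.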 *1 amine or outer side, *2 acyl side, *3 side chain or, on linkers, in order; H or OH if unused. Where a SMILES comes first, the peptide text is derived from it. Bridges are numbered along the chain shown (N, C = ends). [ ]: non-standard residue; d: D form. The star is where a group is joined. X19 = O=C([C@H](N[*:1])c1ccc(O[C@H]2O[C@@H](CO)[C@@H](O)[C@@H](O)[C@H]2O[C@@H]2O[C@H](CO)[C@H](O)[C@H](O)[C@@H]2O)cc1)[*:2]; X18 = NC(=O)[C@@H](O[*:3])[C@H](N[*:1])C(=O)[*:2]; X20 = O=C([C@H](N[*:1])c1ccc(O)c(Cl)c1)[*:2]; d(aThr) = C[C@@H](O)[C@@H](N)C(=O)O; dHpg = N[C@@H](C(=O)O)c1ccc(O)cc1; X17 = CC(C)C/C=C/C=C/C(=O)*; dOrn = NCCC[C@@H](N)C(=O)O

Columns and labels:
Assay in all cases: NCI-60 cell line screen, 48 h
KM20L2 colon = system: KM20L2 colon
DMS 273 small cell lung = system: DMS 273 small cell lung
LXFL 529 NSCLC = system: LXFL 529 NSCLC
M19-MEL melanoma = system: M19-MEL melanoma
SNB-78 CNS = system: SNB-78 CNS
T-47D breast = system: T-47D breast
PC-3 prostate = system: PC-3 prostate
MDA-MB-231 breast = system: MDA-MB-231 breast
DU-145 prostate = system: DU-145 prostate
MDA-MB-435 = system: MDA-MB-435
BT-549 breast = system: BT-549 breast
MCF7 breast = system: MCF7 breast

Structure (SMILES): CC1=C2C(=O)C(C)(C)C=C2C(=O)[C@](C)(O)C12CC2
- TGI (KM20L2 colon): > 1 µM
- TGI (DMS 273 small cell lung): > 0.464 µM
- TGI (LXFL 529 NSCLC): > 1 µM
- TGI (M19-MEL melanoma): > 1 µM
- TGI (SNB-78 CNS): > 1 µM

Structure (SMILES): CC(C)C/C=C/C=C/C(=O)N[C@@H](CC(N)=O)C(=O)N[C@@H]1C(=O)N[C@H](c2ccc(O)cc2)C(=O)N[C@H](CCCN)C(=O)N[C@H]([C@@H](C)O)C(=O)N[C@H](c2ccc(O)cc2)C(=O)N[C@H](c2ccc(O)cc2)C(=O)N[C@H]([C@H](C)O)C(=O)N[C@H](Cc2ccccc2)C(=O)N[C@H](CCCN)C(=O)N[C@H](c2ccc(O[C@H]3O[C@@H](CO)[C@@H](O)[C@@H](O)[C@H]3O[C@@H]3O[C@H](CO)[C@H](O)[C@H](O)[C@@H]3O)cc2)C(=O)N[C@H]([C@H](C)O)C(=O)N[C@H](c2ccc(O)cc2)C(=O)NCC(=O)N[C@H](CC(C)C)C(=O)N[C@H](C)C(=O)N[C@H](c2ccc(O)c(Cl)c2)C(=O)O[C@@H]1C(N)=O (X17-N[X18][dHpg][dOrn][d(aThr)][dHpg][dHpg][dT][dF][dOrn][X19][dT][dHpg]G[dL][dA][X20]; ester 2-C)
- GI50 (T-47D breast): 34.6 µM
- TGI (T-47D breast): 98.9 µM
- GI50 (PC-3 prostate): 44 µM
- TGI (PC-3 prostate): > 100 µM
- GI50 (MDA-MB-231 breast): 16.1 µM
- TGI (MDA-MB-231 breast): 39.6 µM
- GI50 (DU-145 prostate): 37.4 µM
- TGI (DU-145 prostate): > 100 µM
- GI50 (MDA-MB-435): 26 µM
- TGI (MDA-MB-435): 72.8 µM
- GI50 (BT-549 breast): 37.6 µM
- TGI (BT-549 breast): 87.1 µM
- GI50 (MCF7 breast): 31.9 µM
- TGI (MCF7 breast): 94.7 µM

Structure (SMILES): C#Cc1cccc(Nc2ncnc3ccc(-c4cnc(Cl)c(NS(C)(=O)=O)c4)cc23)c1
- GI50 (T-47D breast): 0.046 µM
- TGI (T-47D breast): 1.2 µM
- GI50 (PC-3 prostate): 0.297 µM
- TGI (PC-3 prostate): 2.82 µM
- GI50 (MDA-MB-231 breast): 0.44 µM
- TGI (MDA-MB-231 breast): 3.66 µM
- GI50 (DU-145 prostate): 0.434 µM
- TGI (DU-145 prostate): 6.99 µM
- GI50 (MDA-MB-435): 0.383 µM
- TGI (MDA-MB-435): 2.34 µM
- GI50 (BT-549 breast): 0.183 µM
- TGI (BT-549 breast): 1.41 µM
- GI50 (MCF7 breast): 0.104 µM
- TGI (MCF7 breast): 2.57 µM

Structure (SMILES): O=C1c2cccc3cc([N+](=O)[O-])cc(c23)C(=O)N1CCN1CCCC1
- GI50 (T-47D breast): 0.302 µM
- TGI (T-47D breast): 2.28 µM
- GI50 (PC-3 prostate): 1.58 µM
- TGI (PC-3 prostate): 12.5 µM
- GI50 (MDA-MB-231 breast): 1.56 µM
- TGI (MDA-MB-231 breast): 11.1 µM
- GI50 (DU-145 prostate): 0.286 µM
- TGI (DU-145 prostate): 1.24 µM
- GI50 (MDA-MB-435): 1.31 µM
- TGI (MDA-MB-435): 2.99 µM
- GI50 (BT-549 breast): 1.56 µM
- TGI (BT-549 breast): 7.55 µM
- GI50 (MCF7 breast): 0.309 µM
- TGI (MCF7 breast): 3.83 µM

Structure (SMILES): CCOC(=O)C#Cc1ccc([N+](=O)[O-])cc1
- TGI (T-47D breast): 4.05 µM
- TGI (PC-3 prostate): 8.54 µM
- TGI (MDA-MB-231 breast): 4.64 µM
- TGI (DU-145 prostate): 3.12 µM
- TGI (MDA-MB-435): 10.8 µM
- TGI (BT-549 breast): 4.76 µM
- TGI (MCF7 breast): 2.49 µM

Structure (SMILES): O=C1/C=C/[C@@H](O)[C@@H]2C[C@@H](O)C[C@H]2/C=C/CCC[C@H](CO)O1
- GI50 (T-47D breast): 2.49 µM
- TGI (T-47D breast): 7.12 µM
- GI50 (PC-3 prostate): 2.5 µM
- TGI (PC-3 prostate): > 100 µM
- GI50 (MDA-MB-231 breast): 1.96 µM
- TGI (MDA-MB-231 breast): 4.81 µM
- GI50 (DU-145 prostate): 7.75 µM
- TGI (DU-145 prostate): > 100 µM
- GI50 (MDA-MB-435): 2.91 µM
- TGI (MDA-MB-435): > 100 µM
- GI50 (BT-549 breast): 3.98 µM
- TGI (BT-549 breast): > 100 µM
- GI50 (MCF7 breast): 1.79 µM
- TGI (MCF7 breast): 5.88 µM

Structure (SMILES): Cc1cccc2c1NC(=O)[C@@]21[C@H](C(=O)c2ccccc2)[C@]2(C(=O)Nc3ccccc32)[C@H]2CCCN21
- GI50 (T-47D breast): 20.9 µM
- TGI (T-47D breast): > 100 µM
- GI50 (PC-3 prostate): 36.4 µM
- TGI (PC-3 prostate): > 100 µM
- GI50 (MDA-MB-231 breast): 21.3 µM
- TGI (MDA-MB-231 breast): > 100 µM
- GI50 (DU-145 prostate): > 100 µM
- TGI (DU-145 prostate): > 100 µM
- GI50 (MDA-MB-435): 94.7 µM
- TGI (MDA-MB-435): > 100 µM
- GI50 (BT-549 breast): 27.4 µM
- TGI (BT-549 breast): > 100 µM
- GI50 (MCF7 breast): 14.3 µM
- TGI (MCF7 breast): > 100 µM

Structure (SMILES): CC(C)(C)N1CC(OC(N)=O)C1
- GI50 (T-47D breast): > 100 µM
- TGI (T-47D breast): > 100 µM
- GI50 (PC-3 prostate): > 100 µM
- TGI (PC-3 prostate): > 100 µM
- GI50 (MDA-MB-231 breast): > 100 µM
- TGI (MDA-MB-231 breast): > 100 µM
- GI50 (DU-145 prostate): > 100 µM
- TGI (DU-145 prostate): > 100 µM
- GI50 (MDA-MB-435): > 100 µM
- TGI (MDA-MB-435): > 100 µM
- GI50 (BT-549 breast): > 100 µM
- TGI (BT-549 breast): > 100 µM
- GI50 (MCF7 breast): > 100 µM
- TGI (MCF7 breast): > 100 µM

Structure (SMILES): COc1cc2c(Nc3ccc(Br)cc3F)ncnc2cc1OCC1CCN(C)CC1
- GI50 (T-47D breast): 1.66 µM and 1.32 µM
- TGI (T-47D breast): 8.56 µM and > 10 µM
- GI50 (PC-3 prostate): 4.06 µM and 3.9 µM
- TGI (PC-3 prostate): 18.6 µM and > 10 µM
- GI50 (MDA-MB-231 breast): 2.19 µM and 3.62 µM
- TGI (MDA-MB-231 breast): 8.29 µM and > 10 µM
- GI50 (DU-145 prostate): 1.31 µM and 3.98 µM
- TGI (DU-145 prostate): 15.1 µM and > 10 µM
- GI50 (MDA-MB-435): 1.74 µM and 3.81 µM
- TGI (MDA-MB-435): 3.61 µM and > 10 µM
- GI50 (BT-549 breast): 7.38 µM and > 10 µM
- TGI (BT-549 breast): 19.7 µM and > 10 µM
- GI50 (MCF7 breast): 2.52 µM and 4.67 µM
- TGI (MCF7 breast): 16 µM and > 10 µM

Structure (SMILES): C[C@@H](Oc1cc(NS(=O)(=O)N2CCC2)nc(SCc2cccc(F)c2F)n1)[C@@H](O)CO
- GI50 (T-47D breast): > 100 µM
- TGI (T-47D breast): > 100 µM
- GI50 (PC-3 prostate): > 100 µM
- TGI (PC-3 prostate): > 100 µM
- GI50 (MDA-MB-231 breast): > 100 µM
- TGI (MDA-MB-231 breast): > 100 µM
- GI50 (DU-145 prostate): > 100 µM
- TGI (DU-145 prostate): > 100 µM
- GI50 (MDA-MB-435): > 100 µM
- TGI (MDA-MB-435): > 100 µM
- GI50 (BT-549 breast): > 100 µM
- TGI (BT-549 breast): > 100 µM
- GI50 (MCF7 breast): > 100 µM
- TGI (MCF7 breast): > 100 µM
